Test results reported in patent US10150757B2, “Quinazolinone derivatives as PARP inhibitors” (Janssen Pharmaceutica NV, priority 2004, dated 2018).

What was measured:
[1] = system: ischemia and reperfusion of the heart; conditions: rabbits, cited from earlier work
[2] = system: colitis; conditions: rats, colitis by intraluminal trinitrobenzene sulfonic acid in 50% ethanol; cited from earlier work
[3] = biological target: T1, TANK-2 enzyme (Homo sapiens, UniProt Q9H2K2); experiment: In vitro scintillation proximity assay (SPA) for TANK-2 inhibitory activity; format: biochemical; conditions: auto-poly(ADP-ribosyl)ation; 96-well plate results if available, otherwise 384-well; read-out: in vitro SPA assay TANK-2 pIC50 (converted)
T1 construct: made in house
T1 sequence (Q9H2K2 1-1166): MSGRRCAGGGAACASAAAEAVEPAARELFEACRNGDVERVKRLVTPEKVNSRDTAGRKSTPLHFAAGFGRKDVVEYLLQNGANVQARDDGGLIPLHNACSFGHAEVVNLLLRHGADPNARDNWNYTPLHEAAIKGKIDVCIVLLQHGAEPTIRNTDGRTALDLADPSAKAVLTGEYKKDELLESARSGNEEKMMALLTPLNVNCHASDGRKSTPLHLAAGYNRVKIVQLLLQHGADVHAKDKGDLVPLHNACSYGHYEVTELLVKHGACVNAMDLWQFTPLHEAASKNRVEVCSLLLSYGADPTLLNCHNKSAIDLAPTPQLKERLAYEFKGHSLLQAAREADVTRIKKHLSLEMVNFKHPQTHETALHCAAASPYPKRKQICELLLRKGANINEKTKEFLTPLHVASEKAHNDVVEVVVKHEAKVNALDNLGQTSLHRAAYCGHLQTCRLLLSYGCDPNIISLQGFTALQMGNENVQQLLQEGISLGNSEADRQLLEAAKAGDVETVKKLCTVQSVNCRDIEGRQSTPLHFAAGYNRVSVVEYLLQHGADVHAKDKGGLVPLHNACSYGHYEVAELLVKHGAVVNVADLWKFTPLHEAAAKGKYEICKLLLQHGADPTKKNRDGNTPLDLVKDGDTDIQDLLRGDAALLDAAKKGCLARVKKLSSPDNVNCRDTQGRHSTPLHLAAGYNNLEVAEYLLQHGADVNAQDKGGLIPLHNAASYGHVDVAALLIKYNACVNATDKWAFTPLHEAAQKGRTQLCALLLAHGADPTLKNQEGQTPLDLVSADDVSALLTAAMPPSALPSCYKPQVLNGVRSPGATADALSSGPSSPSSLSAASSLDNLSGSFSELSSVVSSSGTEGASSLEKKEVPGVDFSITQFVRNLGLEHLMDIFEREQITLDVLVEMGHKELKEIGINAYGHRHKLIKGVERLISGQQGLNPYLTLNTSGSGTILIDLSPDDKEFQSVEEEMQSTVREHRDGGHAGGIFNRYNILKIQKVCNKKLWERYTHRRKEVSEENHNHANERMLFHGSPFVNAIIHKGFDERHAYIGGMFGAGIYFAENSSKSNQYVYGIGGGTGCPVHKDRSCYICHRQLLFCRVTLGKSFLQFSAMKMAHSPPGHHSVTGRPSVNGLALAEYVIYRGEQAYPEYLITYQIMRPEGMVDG
Procedure: In Vitro Scintillation Proximity Assay (SPA) for TANK-2 Inhibitory Activity
Compounds of the present invention were tested in an in vitro assay based on SPA technology with Ni Flash plates (96 or 384 well).
In principle, the assay relies upon SPA technology for the detection of auto-poly(ADP-ribosyl)ation of TANK-2 protein using [^3H]-nicotinamide adenine dinucleotide ([^3H]-NAD^+) as ADP-ribosyl donor.
A stock solution of [^3H]-NAD^+/NAD was made by adding 64.6 μl of [^3H]-NAD^+ (0.1 mCi/ml, supplier: Perkin Elmer) and 46.7 μl NAD-stock (10.7 mM, stored at −20° C., supplier Roche) to 1888.7 μl assay buffer (60 mM Tris/HCl, pH 7.4; 0.9 mM DTT; 6 mM MgCl2). The TANK-2 enzyme was produced as described in EP1238063. 60 μl of assay buffer, together with 1 μl of compound in DMSO, 20 μl of [^3H]-NAD^+/NAD and 20 μl of TANK-2 enzyme (final concentration 6 μg/ml) was added per well into a 96-well Ni-coated flash plate (Perkin Elmer). After incubation of the mixture for 120 min. at room temperature, the reaction was terminated by adding 60 μl of stop solution (42.6 mg NAD in 6 ml H2O). The plates were covered with a plate sealer and placed in a TopCountNXT™ (Packard) for scintillation counting. Values were expressed as counts per minute (cpm). For each experiment, controls (containing TANK-2 enzyme and DMSO without compound), a blank incubation (containing DMSO but no TANK-2 enzyme or compound) and samples (containing TANK-2 enzyme and compound dissolved in DMSO) were run in parallel. All compounds tested were dissolved and eventually further diluted in DMSO. In first instance, compounds were tested at a concentration of 10^−5M. […] In each test, the blank value was subtracted from both the control and the sample values. The control sample represented maximal TANK-2 enzyme activity. For each sample, the amount of cpm was expressed as a percentage of the mean cpm value of the controls. When appropriate, IC50-values (concentration of the drug, needed to reduce the TANK-2 enzyme activity to 50% of the control) were computed using linear interpolation between the experimental points just above and below the 50% level. Herein the effects of test compounds are expressed as pIC50 (the negative log value of the IC50-value). As reference compounds, 3-aminobenzamide and 4-amino-1,8-naphthalimide were included to validate the SPA assay. Herein the assay was described using 96-well plates. In the assay using 384-well plates the same final concentrations were used and volumes were adapted.

[4] = biological target: PARP-1 enzyme (Homo sapiens, UniProt P09874); experiment: In vitro scintillation proximity assay (SPA) for PARP-1 inhibitory activity; format: biochemical; conditions: [3H]-NAD+, biotinylated histones, nicked DNA; read-out: in vitro SPA assay PARP-1 pIC50 (converted)
Chain of PARP-1 enzyme (P09874 whole entry): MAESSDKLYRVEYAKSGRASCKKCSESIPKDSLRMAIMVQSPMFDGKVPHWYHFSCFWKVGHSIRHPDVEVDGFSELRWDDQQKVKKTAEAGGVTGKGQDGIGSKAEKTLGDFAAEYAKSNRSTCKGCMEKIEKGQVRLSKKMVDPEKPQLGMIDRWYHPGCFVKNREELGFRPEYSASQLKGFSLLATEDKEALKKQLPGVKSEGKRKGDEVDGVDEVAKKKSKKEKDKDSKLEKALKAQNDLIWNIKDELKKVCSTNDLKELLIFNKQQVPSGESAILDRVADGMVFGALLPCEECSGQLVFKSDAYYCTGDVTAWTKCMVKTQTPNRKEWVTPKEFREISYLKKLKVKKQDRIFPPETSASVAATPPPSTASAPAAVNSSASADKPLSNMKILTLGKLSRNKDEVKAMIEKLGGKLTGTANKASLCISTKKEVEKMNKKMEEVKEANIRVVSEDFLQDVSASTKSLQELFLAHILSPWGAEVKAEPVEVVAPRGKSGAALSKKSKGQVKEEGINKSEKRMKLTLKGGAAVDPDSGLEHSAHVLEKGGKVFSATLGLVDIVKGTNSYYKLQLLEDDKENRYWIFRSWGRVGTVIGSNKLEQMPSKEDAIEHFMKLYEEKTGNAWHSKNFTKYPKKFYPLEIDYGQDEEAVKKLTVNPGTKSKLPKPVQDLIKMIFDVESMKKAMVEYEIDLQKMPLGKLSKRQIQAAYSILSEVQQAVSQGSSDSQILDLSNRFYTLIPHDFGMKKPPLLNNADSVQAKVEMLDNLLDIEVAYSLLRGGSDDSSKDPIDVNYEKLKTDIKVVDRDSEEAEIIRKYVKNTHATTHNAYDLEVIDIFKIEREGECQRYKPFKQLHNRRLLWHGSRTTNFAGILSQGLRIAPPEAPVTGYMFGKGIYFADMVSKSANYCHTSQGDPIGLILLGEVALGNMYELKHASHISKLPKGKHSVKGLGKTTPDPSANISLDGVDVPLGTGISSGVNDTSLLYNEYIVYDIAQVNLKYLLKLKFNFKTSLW
Procedure: In Vitro Scintillation Proximity Assay (SPA) for PARP-1 Inhibitory Activity
Compounds of the present invention were tested in an in vitro assay based on SPA technology (proprietary to Amersham Pharmacia Biotech).
In principle, the assay relies upon the well established SPA technology for the detection of poly(ADP-ribosyl)ation of biotinylated target proteins, i.e histones. This ribosylation is induced using nicked DNA activated PARP-1 enzyme and [^3H]-nicotinamide adenine dinucleotide ([^3H]-NAD^+) as ADP-ribosyl donor.
As inducer of PARP-1 enzyme activity, nicked DNA was prepared. For this, 25 mg of DNA (supplier: Sigma) was dissolved in 25 ml DNAse buffer (10 mM Tris-HCl, pH 7.4; 0.5 mg/ml Bovine Serum Albumine (BSA); 5 mM MgCl2.6H2O and 1 mM KCl) to which 50 μl DNAse solution (1 mg/ml in 0.15M NaCl) was added. After an incubation of 90 min. at 37° C., the reaction was terminated by adding 1.45 g NaCl, followed by a further incubation at 58° C. for 15 min. The reaction mixture was cooled on ice and dialysed at 4° C. for respectively 1.5 and 2 hours against 1.5 l of 0.2M KCl, and twice against 1.5 l of 0.01M KCl for 1.5 and 2 h respectively. The mixture was aliquoted and stored at −20° C. Histones (1 mg/ml, type II-A, supplier: Sigma) were biotinylated using the biotinylation kit of Amersham and stored aliquoted at −20° C. A stock solution of 100 mg/ml SPA poly(vinyl toluene) (PVT) beads (supplier: Amersham) was made in PBS. A stock solution of [^3H]-NAD^+ was made by adding 120 μl of [^3H]-NAD^+ (0.1 mCi/ml, supplier: NEN) to 6 ml incubation buffer (50 mM Tris/HCl, pH 8; 0.2 mM DTT; 4 mM MgCl2). A solution of 4 mM NAD^+ (supplier: Roche) was made in incubation buffer (from a 100 mM stock solution in water stored at −20° C.). The PARP-1 enzyme was produced using art known techniques, i.e. cloning and expression of the protein starting from human liver cDNA. Information concerning the used protein sequence of the PARP-1 enzyme including literature references can be found in the Swiss-Prot database under primary accession number P09874. Biotinylated histones and PVT-SPA beads were mixed and pre-incubated for 30 min. at room temperature. PARP-1 enzyme (concentration was lot dependent) was mixed with the nicked DNA and the mixture was pre-incubated for 30 min. at 4° C. Equal parts of this histones/PVT-SPA beads solution and PARP-1 enzyme/DNA solution were mixed and 75 μl of this mixture together with 1 μl of compound in DMSO and 25 μl of [^3H]-NAD^+ was added per well into a 96-well microtiterplate. The final concentrations in the incubation mixture were 2 μg/ml for the biotinylated histones, 2 mg/ml for the PVT-SPA beads, 2 μg/ml for the nicked DNA and between 5-10 μg/ml for the PARP-1 enzyme. After incubation of the mixture for 15 min. at room temperature, the reaction was terminated by adding 100 μl of 4 mM NAD^+ in incubation buffer (final concentration 2 mM) and plates were mixed.
The beads were allowed to sediment for at least 15 min. and plates transferred to a TopCountNXT™ (Packard) for scintillation counting, values were expressed as counts per minute (cpm). For each experiment, controls (containing PARP-1 enzyme and DMSO without compound), a blank incubation (containing DMSO but no PARP-1 enzyme or compound) and samples (containing PARP-1 enzyme and compound dissolved in DMSO) were run in parallel. All compounds tested were dissolved and eventually further diluted in DMSO. In first instance, compounds were tested at a concentration of 10^−5M. […] In each test, the blank value was subtracted from both the control and the sample values. The control sample represented maximal PARP-1 enzyme activity. For each sample, the amount of cpm was expressed as a percentage of the mean cpm value of the controls. […] Herein the effects of test compounds are expressed as pIC50 (the negative log value of the IC50-value).

CCc1cc2cc(CN3CCN(CCNc4nc5ccccc5c(=O)[nH]4)CC3)ccc2nc1OC (hydrate or solvate) [Compound 3]
melting point: 118 °C

Oc1cccc2c(O)nccc12 [1,5-dihydroxyisoquinoline]
reduced infarct size ([1]; single injection 1 mg/kg): 38-48%

NC(=O)c1cccc(N)c1 [3-amino-benzamide]
inflammatory response, morphology and energetic status of the distal colon [2]: reduced the inflammatory response and restored the morphology and the energetic status of the distal colon
reductions in infarct size in the heart ([1]; single injection 10 mg/kg, one minute before occlusion or one minute before reperfusion): 32-42%

CC1(C)Cc2cc(Cl)cc(C(=O)NC3CCN(CCCNc4nc(O)c5ccccc5n4)CC3)c2O1 [Compound 11]
IC50 [3]: > 10 µM

CC1(C)Cc2cc(Cl)cc(C(=O)NC3CCN(CCNc4nc(O)c5ccccc5n4)CC3)c2O1 [Compound 12]
IC50 [3]: > 10 µM

CO[C@H]1CN(CCNc2nc(O)c3ccccc3n2)CC[C@H]1NC(=O)c1cc(Cl)cc2c1OC(C)(C)C2 [Compound 13]
IC50 [3]: > 10 µM

CO[C@@H]1CN(CCCNc2nc(O)c3cc(Cl)ccc3n2)CC[C@@H]1NC(=O)c1cc(Cl)c(N)c2c1OC(C)(C)C2 [Compound 16]
IC50 [3]: > 10 µM

CO[C@@H]1CN(CCCNc2nc(O)c3ccc(Cl)cc3n2)CC[C@@H]1NC(=O)c1cc(Cl)c(N)c2c1OC(C)(C)C2 [Compound 17]
IC50 [3]: > 10 µM

O=c1[nH]c(NCCN2CCN(c3n[nH]c4ccccc34)CC2)nc2ccccc12 [Compound 19]
IC50 [3]: > 10 µM

COc1cc2nc(NCCN3CCN(c4n[nH]c5ccccc45)CC3)[nH]c(=O)c2cc1OC [Compound 32]
IC50 [4]: 0.0452 µM

Cc1cccc2nc(NCCN3CCC(c4n[nH]c5cc(F)ccc45)CC3)[nH]c(=O)c12 [Compound 34]
IC50 [4]: 0.0217 µM

O=c1[nH]c(NCCN2CCN(c3n[nH]c(=O)c4ccccc34)CC2)nc2ccccc12 [Compound 35]
IC50 [4]: 0.0107 µM
